This passage reports TGI results from PubChem BioAssay (NCI).

Experiment in all cases: DTP human tumour cell line panel, 48 h
Assay [1] has as its system HS 578T breast.
In assay [2] the test system is TK-10 renal.
Assay [3] has as its system MDA-MB-231 breast.
In assay [4] the test system is SF-268 CNS.
Assay [5] deals with MALME-3M melanoma.
Assay [6] relates to KM12 colon.
Assay [7] concerns IGROV1 ovarian.
Assay [8] deals with SF-539 CNS.
Assay [9] relates to OVCAR-8 ovarian.
Assay [10] deals with COLO 205 colon.
The test system of assay [11] is ACHN renal.
Assay [12] concerns MOLT-4 leukemia.
In assay [13] the test system is EKVX NSCLC.
Assay [14] has as its system HCC-2998 colon.
The test system of assay [15] is CCRF-CEM leukemia.
Assay [16] concerns HL-60(TB) leukemia.
Assay [17] relates to A498 renal.
Assay [18] concerns UO-31 renal.
The subject of assay [19] is SK-MEL-5 melanoma.

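Each compound was tested at five concentrations against cells in 96-well plates for 48 hours. TGI is the concentration that stops growth completely.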

As to `CCN(CC)CCC(=O)c1ccc(Oc2ccccc2)cc1`, the concentration for total growth inhibition (TGI) in assay [1] was found to be 52.6 µM; in assay [2], 27.5 µM; in assay [3], 36.7 µM; in assay [4] it was 55.9 µM; in [5] it was 30.1 µM; in assay [6], 27.4 µM. Besides, the TGI in [7] is 33.3 µM; in assay [8], 34 µM; in assay [9], greater than 100 µM; in assay [10], 32.1 µM; in [11] it was 29.3 µM; in assay [12], 48.4 µM. In addition, the TGI in assay [13] came out at 41.4 µM; in assay [14], 35.6 µM; in assay [15], 51.3 µM.

For the compound `CC(=O)OCC1OC(n2c(C)c(C(C)=O)c(-c3cccc4ccccc34)c(C#N)c2=S)C(OC(C)=O)C(OC(C)=O)C1OC(C)=O` (stereo unspecified), the TGI in assay [2], in assay [3], in [4], in assay [5], in assay [6] and in assay [7] was greater than 100 µM throughout. For the same compound, the TGI in assay [16], in assay [8], in [9], in assay [10], in assay [11] and in [17] was greater than 100 µM each time. For the same compound, the TGI in assay [12] was greater than 100 µM; in assay [18] it was 0.249 µM; in [13] it was greater than 100 µM; in assay [19], greater than 100 µM; in assay [14], greater than 100 µM; in [15], greater than 100 µM.

On to `Clc1ccccc1-c1nnc2c(-c3ccccc3)nc3ccccc3n12`, for which the TGI in assay [2], in [3], in [4], in assay [5], in [6] and in assay [7] was greater than 100 µM each time. Besides, the TGI in [16], in [8], in [10], in assay [11], in assay [17] and in assay [12] was greater than 100 µM in each case. Also, the TGI was greater than 100 µM in [13], greater than 100 µM in assay [19], greater than 100 µM in assay [14] and 83.2 µM in [15].

In the case of `C/C(=N/NC(=S)NCCc1ccccn1)c1cnccn1`, the TGI in assay [1], in [2], in assay [3], in assay [4], in [5] and in assay [6] was greater than 100 µM throughout. Besides, the TGI is greater than 100 µM in assay [7]; greater than 100 µM in [10]; greater than 100 µM in assay [11]; 41.4 µM in assay [12]; 90.2 µM in [18]; greater than 100 µM in [13]. Besides, the TGI in assay [19] was greater than 100 µM; in assay [14], greater than 100 µM; in assay [15], 68.9 µM.

Consider `COc1ccccc1/C=N/N=C(\N)NO`, for which the TGI was greater than 100 µM in assay [4]; greater than 100 µM in assay [5]; greater than 100 µM in [6]; greater than 100 µM in assay [7]; 9.4 µM in assay [8]; greater than 100 µM in assay [10]. For the same compound, the TGI in [11] was greater than 100 µM; in assay [17], greater than 100 µM; in [12], greater than 100 µM; in assay [18], greater than 100 µM; in assay [13], greater than 100 µM; in [19], 25.6 µM. In addition, the total growth inhibition concentration (TGI) was 29.2 µM in assay [14] and greater than 100 µM in assay [15].

With `[C-]#[N+]C1(C(=O)OCC)CC1`, the TGI in assay [1], in [2], in assay [4], in assay [5], in assay [7] and in [16] was greater than 100 µM in each case. Further, the TGI in [8], in assay [9], in [11], in [17], in assay [12] and in [13] was greater than 100 µM throughout. In addition, the TGI in assay [19], in assay [14] and in assay [15] was greater than 100 µM each time.

As for `O=C1NC(=NC2CCCCC2)C2(CCN(CCCC3(c4ccc(F)cc4)OCCO3)CC2)N1c1ccccc1`, the TGI in [1] amounted to 35 µM; in [2] it was 32.7 µM; in assay [4] it was 42.2 µM; in assay [5] it was 30.5 µM; in [6], 38.9 µM; in [16] it was 28.7 µM. Also, the TGI was 30.7 µM in assay [8]; 64.9 µM in assay [9]; 38.4 µM in assay [10]; 28.4 µM in [11]; 36.7 µM in assay [12]; 25.9 µM in [18]. Besides, the TGI was 36.2 µM in [13], 28.2 µM in [19] and greater than 100 µM in [15].

On to `CN(C)CCNC(=O)c1cc(-c2nccn2C)nc2ccccc12`, for which the TGI in assay [2], in assay [3], in [4], in assay [5], in assay [6] and in assay [7] was greater than 100 µM throughout. The TGI in [16], in [8], in assay [9], in assay [10], in assay [11] and in assay [17] was greater than 100 µM in each case. Further, the TGI in assay [12], in assay [18], in [13], in assay [19], in assay [14] and in assay [15] was greater than 100 µM each time.
